# Data published in patent US20260078120A1, “SUBSTITUTED PYRIDOPYRIMIDINONES” (MIRATI THERAPEUTICS, INC., priority 2022, published 2026).
# Key:
# [1] = tested on: SKBR3 (PI3Kα wild type) cells; experiment: CellTiter-Glo 2.0 luminescent cell viability assay, 72 hours, SKBR3 cells; format: cell-based; settings: Homo sapiens, SK-BR-3, 72 h, SKBR3 (PI3Kα wild type) cells, CellTiter-Glo, approximately 72 hours; read-out: SKBR3 (WT) Viability IC50
# Summary of the method: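 Viability measured via CTG luminescence following roughly 72 hours of compound exposure at 37° C. Dosing used a 10 um starting concentration diluted 1:4 over 10 points; percent-of-vehicle data fitted with a variable-slope four-parameter model for IC50.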
# [2] = tested on: T47D (PI3Kα H1047R mutant) cells; experiment: CellTiter-Glo 2.0 luminescent cell viability assay, 72 hours, T47D cells; format: cell-based; settings: Homo sapiens, T47D, 72 h, T47D (PI3Kα H1047R mutant) cells, CellTiter-Glo, approximately 72 hours; read-out: T47D (H1047R mutant) Viability IC50
# Summary of the method: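 Cells seeded at 1000 per well overnight were dosed with a 10-concentration, 1:4 series starting at 10 µM and incubated ~72 h at 37° C. Viability was read by CellTiter-Glo 2.0 luminescence after 30 min at room temperature. IC50 came from four-parameter fits of percent vehicle control.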
SMILES,IC50 [1] [nM],IC50 [2] [nM]
"Cc1cc([C@@H](C)Nc2ccccc2C(=O)O)c2nc(N3CCN(c4cccc(C#N)c4)C[C@H]3C)c(C)c(=O)n2c1 [Example 11-87, 2-(((R)-1-(2-((R)-4-(3-cyanophenyl)-2-methylpiperazin-1-yl)-3,7-dimethyl-4-oxo-4H-pyrido[1,2-a]pyrimidin-9-yl)ethyl)amino)benzoic acid]",> 10000,156
"Cc1cc([C@@H](C)Nc2ccc(F)c(F)c2C(=O)O)c2nc(N3CCC(F)(F)CC3)c(C#N)c(=O)n2c1 [Example 11-88, (R)-6-((1-(3-cyano-2-(4,4-difluoropiperidin-1-yl)-7-methyl-4-oxo-4H-pyrido[1,2-a]pyrimidin-9-yl)ethyl)amino)-2,3-difluorobenzoic acid]",> 10000,1650
"Cc1cc([C@@H](C)Nc2ccc(Cl)c(F)c2C(=O)O)c2nc(N3CCC(F)(F)CC3)c(C#N)c(=O)n2c1 [Example 11-89, (R)-3-chloro-6-((1-(3-cyano-2-(4,4-difluoropiperidin-1-yl)-7-methyl-4-oxo-4H-pyrido[1,2-a]pyrimidin-9-yl)ethyl)amino)-2-fluorobenzoic acid]",> 10000,3150
"Cc1cc([C@@H](C)Nc2ccc(F)cc2C(=O)O)c2nc(N3CCC(F)(F)CC3)c(C#N)c(=O)n2c1 [Example 11-90, (R)-2-((1-(3-cyano-2-(4,4-difluoropiperidin-1-yl)-7-methyl-4-oxo-4H-pyrido[1,2-a]pyrimidin-9-yl)ethyl)amino)-5-fluorobenzoic acid]",> 10000,306
"Cc1cc([C@@H](C)Nc2ccc(Cl)cc2C(=O)O)c2nc(N3CCC(F)(F)CC3)c(C)c(=O)n2c1 [Example 11-91, (R)-5-chloro-2-((1-(2-(4,4-difluoropiperidin-1-yl)-3,7-dimethyl-4-oxo-4H-pyrido[1,2-a]pyrimidin-9-yl)ethyl)amino)benzoic acid]",> 10000,358
"Cc1cc([C@@H](C)Nc2ccccc2C(=O)O)c2nc(N3CCC(F)(F)C[C@@H]3C)c(C)c(=O)n2c1 [Example 11-92, 2-(((R)-1-(2-((S)-4,4-difluoro-2-methylpiperidin-1-yl)-3,7-dimethyl-4-oxo-4H-pyrido[1,2-a]pyrimidin-9-yl)ethyl)amino)benzoic acid]",> 10000,213

# Second part, the compound after the results:
IC50 [1] [nM],IC50 [2] [nM],SMILES
> 10000,268,"Cc1cc([C@@H](C)Nc2ccccc2C(=O)O)c2nc(N3CCC(F)(F)C[C@H]3C)c(C)c(=O)n2c1 [Example 11-93, 2-(((R)-1-(2-((R)-4,4-difluoro-2-methylpiperidin-1-yl)-3,7-dimethyl-4-oxo-4H-pyrido[1,2-a]pyrimidin-9-yl)ethyl)amino)benzoic acid]"
> 10000,185,"Cc1cc([C@@H](C)Nc2ccccc2C(=O)O)c2nc(N3CC[C@H]3CF)c(C)c(=O)n2c1 [Example 11-94, 2-(((R)-1-(2-((S)-2-(fluoromethyl)azetidin-1-yl)-3,7-dimethyl-4-oxo-4H-pyrido[1,2-a]pyrimidin-9-yl)ethyl)amino)benzoic acid]"
> 10000,198,"Cc1cc([C@@H](C)Nc2ccccc2C(=O)O)c2nc(N3CC[C@@H]3CF)c(C)c(=O)n2c1 [Example 11-95, 2-(((R)-1-(2-((R)-2-(fluoromethyl)azetidin-1-yl)-3,7-dimethyl-4-oxo-4H-pyrido[1,2-a]pyrimidin-9-yl)ethyl)amino)benzoic acid]"
> 10000,159,"Cc1cc([C@@H](C)Nc2ccccc2C(=O)O)c2nc(N3CC(F)(F)[C@H]3C)c(C)c(=O)n2c1 [Example 11-96, 2-(((R)-1-(2-((R)-3,3-difluoro-2-methylazetidin-1-yl)-3,7-dimethyl-4-oxo-4H-pyrido[1,2-a]pyrimidin-9-yl)ethyl)amino)benzoic acid]"
> 10000,309,"Cc1cc([C@@H](C)Nc2ccccc2C(=O)O)c2nc(N3CC[C@H]3C(F)(F)F)c(C)c(=O)n2c1 [Example 11-97, 2-(((R)-1-(3,7-dimethyl-4-oxo-2-((S)-2-(trifluoromethyl)azetidin-1-yl)-4H-pyrido[1,2-a]pyrimidin-9-yl)ethyl)amino)benzoic acid]"
